PMC7614683, “A small molecule PI3Kα activator for cardioprotection and neuroregeneration” (Nature, 2023)

Assays:
rat sciatic nerve = test: pAkt generation in exposed rat sciatic nerves; format: in vivo; conditions: direct injection or bathing, 1938 5 μM, 30 min
Description: To assess if 1938 could induce pAkt generation in exposed rat sciatic nerves, adult male Sprague Dawley rats (>250g; n=2) were anaesthetised using isoflurane, the left sciatic nerve was exposed and injected with 2 μl vehicle (sterile dH2O) or 1938 (5 μM in sterile dH2O). Meanwhile the right sciatic nerve was exposed and bathed in 250 μl of vehicle (sterile dH2O) or 1938 (5 μM in sterile dH2O). Each animal received one vehicle and one compound treatment. The treatments were left on for 30 min prior to washing the bathed nerves with sterile PBS and culling via sodium pentobarbital injection according to local regulations. Nerves were then harvested, washed in fresh 4°C PBS and stored in a fresh vial before snap freezing in liquid nitrogen. Frozen sciatic nerves were homogenised in RIPA buffer supplemented with protease and phosphatase inhibitors using a mortar and pestle homogeniser. The subsequent crude lysates were centrifuged at 10,000xg for 10 min at 4°C, the supernatant harvested and stored at -80°C prior to automated western blot (Wes) analysis for pAkt and controls (Extended Data Fig. 9a; bottom panel).

HeLa cells = test: TIRF microscopy of PIP3 and PI(3,4)P2 reporters, HeLa; format: cell-based, human
Description: Phosphoinositide reporters used were GFP-PH-ARNO^I303Ex2 (PIP3 reporter[41]) and mCherry-cPH-TAPP1x3 (PI(3,4)P2 reporter[41]). TIRF microscopy allows selective imaging of the small cell volume, including the plasma membrane, directly adjacent to the coverslip onto which cells have been seeded. HeLa or A549 cells were seeded in Matrigel-coated (Corning #354230; diluted in Opti-MEM at 1:50) 8-well chamber slides (glass bottom, 1.55 refractive index; Thermo Fisher Scientific #155409) at a density of 5,000 cells/well. […]
Image analyses of total reporter intensities were performed with the Fiji open source image analysis package. The region of interest (ROI) corresponding to the footprint of the individual cell across time points were defined using minimal intensity projection to select only pixels present across all time points, following prior subtraction of camera noise (rolling ball method, radius = 500 pixels) and xy drift correction, intensity levels over time were measured. […] All other quantifications were performed using the open source software R/RStudio. The values plotted in Fig. 3d (iii) represent mean±SEM, following signal scaling to minimum and maximum values of the normalised fluorescence intensity for each time point (Fn(t)). […]

PI3Kα-WT MEFs = test: pAKT S473 western blot, PI3Kα-WT MEFs; format: cell-based; conditions: Mus musculus, 0.25 h; 15 min; read-out: EC50 of pAKT^S473 induction
Description: Unless otherwise indicated, western blotting was performed with ECL detection. For time course studies, A549 cells were seeded at 250,000 cells per well in 6-well plates in RPMI (10% FBS + 1 mM Na-Pyruvate + 1% P/S) and allowed to adhere overnight. The next day they were serum-starved for 4 h prior to treatment with 100 nM insulin or 5 μM 1938, for the indicated time (5 min to 48 h) at 37°C, 5% CO2. For 1938 titration assays in MEFs, cells were seeded at 150,000 cells per well in 6-well plates and allowed to adhere overnight. The next day they were serum-starved for 4 h prior to treatment with insulin (1 μM), 1938 (0.2 to 30 μM, final DMSO concentration of 1.5%) or inhibitors (final DMSO concentration of ≤1.5%) for 15 min at 37°C, 5% CO2. Cells were washed twice with cold PBS and lysed using cold RIPA buffer (25 mM Tris.HCl pH 7.6, 150 mM NaCl, 1% NP-40, 1% sodium deoxycholate, 0.1% SDS supplemented with protease/phosphatase inhibitor cocktail from Merck). To remove cell debris, homogenates were spun at 13,000 rpm for 15 min at 4°C and the supernatant fraction recovered. Protein concentration was determined by colorimetric assay (BCA assay, Promega). […]

Question: How did the “pAKT in exposed sciatic nerves” value (rat sciatic nerve) turn out when `CCN1CCN(c2ccc(Nc3cc(Nc4cccc5c4N(C(C)=O)CC5)ccn3)cc2)CC1` [Compound 1938] was run?
Answer: pAKT induction

Question: And the “membrane-associated PI(3,4)P2 (biosensor)” value (HeLa cells)?
Answer: generation of membrane-associated PI(3,4)P2

Question: And the “plasma membrane PIP3 (biosensor)” value (HeLa cells)?
Answer: acute and BYL719-sensitive burst of PIP3

Question: What about the EC50 (PI3Kα-WT MEFs) of the same molecule?
Answer: 2 to 4 µM
